These compounds were tested on HCV replicon (assay: Replicon based assay of HCV replication inhibition (NPT ELISA)). Settings: Hepatitis C virus, Huh-7, 72 h, Table III; Huh-7 HCV replicon-containing cells, three days; read-out: Activity.
Assay type: cell-based, Hepatitis C virus
Method in brief: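 NPT (neomycin phosphotransferase) content, proportional to replicon replication, quantified by capture ELISA on day four. Before that, replicon-bearing Huh-7 cells in G418-free screening medium were exposed three days at 37° C to compound, typically six doses from 10 to 0.03 micromolar, with equal DMSO across wells.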

| Structure (SMILES) | EC50 [µM] |
| --- | --- |
| CCCCCCCCOc1ccc(Nc2nc(-c3cncnc3)cs2)cc1C(F)(F)F [compound 617, N-(3-(trifluoromethyl)-4-(octyloxy)phenyl)-4-(pyrimidin-5-yl)thiazol-2-amine] | < 1 |
| CCCCCOc1ccc(Nc2nc(-c3cncnc3)cs2)cc1F [compound 618, N-(3-fluoro-4-(pentyloxy)phenyl)-4-(pyrimidin-5-yl)thiazol-2-amine] | < 1 |
| CCCCCCCCOc1ccc(Nc2nc(-c3cnc(Cl)nc3)cs2)cc1 [compound 619, 4-(2-chloropyrimidin-5-yl)-N-(4-(octyloxy)phenyl)thiazol-2-amine] | < 1 |
| CCCCCCCCOc1ccc(Nc2nc(-c3cnc(Cl)nc3)cs2)cc1C(F)(F)F [compound 620, 4-(2-chloropyrimidin-5-yl)-N-(3-(trifluoromethyl)-4-(octyloxy)phenyl)thiazol-2-amine] | < 1 |
| FC(F)(F)c1cc(Nc2nc(-c3cncnc3)cs2)ccc1OC1CCCC1 [compound 621, N-(4-(cyclopentyloxy)-3-(trifluoromethyl)phenyl)-4-(pyrimidin-5-yl)thiazol-2-amine] | < 1 |
| FC(F)(F)c1cc(Nc2nccs2)ccc1OCCCC1CCCC1 [compound 622, N-(4-(3-cyclopentylpropoxy)-3-(trifluoromethyl)phenyl)thiazol 2-amine] | < 1 |
| CCCCCCCCOc1ccc(Nc2nccs2)cc1 [compound 623, N-(4-(octyloxy)phenyl)thiazol-2-amine] | < 1 |
| CCCCCCCCN(C)c1ccc(Nc2nccs2)cc1C(F)(F)F [compound 624, 2-(trifluoromethyl)-N^1-methyl-N^1-octyl-N^4-(thiazol-2-yl)benzene-1,4-diamine] | < 1 |
| CCCCCOc1ccc(Nc2nc(Cc3ccc(F)cc3)cs2)cc1C(F)(F)F [compound 627, 4-(4-fluorobenzyl)-N-(3-(trifluoromethyl)-4-(pentyloxy)phenyl)thiazol-2-amine] | < 1 |
| CCCCCCCCOc1ccc(Nc2nc(Cc3ccc(F)cc3)cs2)cc1 [compound 628, 4-(4-fluorobenzyl)-N-(4-(octyloxy)phenyl)thiazol-2-amine] | 1 to 10 |
| CCCCCCCCOc1ccc(Nc2nc(Cc3ccc(F)cc3)cs2)cc1C(F)(F)F [compound 629, 4-(4-fluorobenzyl)-N-(3-(trifluoromethyl)-4-(octyloxy)phenyl)thiazol-2-amine] | < 1 |
| CCCCCOc1ccc(Nc2nc(Cc3ccc(F)cc3)cs2)cc1F [compound 630, 4-(4-fluorobenzyl)-N-(3-fluoro-4-(pentyloxy)phenyl)thiazol-2-amine] | > 10 |
| CCCCCN(C)c1ccc(Nc2nc(Cc3ccc(F)cc3)cs2)cc1C(F)(F)F [compound 631, N^4-(4-(4-fluorobenzyl)thiazol-2-yl)-2-(trifluoromethyl)-N^1-methyl-N^1-pentylbenzene-1,4-diamine] | > 10 |
| CCCCCCCCN(C)c1ccc(Nc2nc(Cc3ccc(F)cc3)cs2)cc1 [compound 632, N^1-(4-(4-fluorobenzyl)thiazol-2-yl)-N^4-methyl-N^4-octylbenzene-1,4-diamine] | > 10 |
| CCCCCOc1ccc(Nc2nc(Cc3ccc(Cl)cc3)cs2)cc1C(F)(F)F [compound 633, 4-(4-chlorobenzyl)-N-(3-(trifluoromethyl)-4-(pentyloxy)phenyl)thiazol-2-amine] | 1 to 10 |
| CCCCCCCCOc1ccc(Nc2nc(Cc3ccc(Cl)cc3)cs2)cc1 [compound 634, 4-(4-chlorobenzyl)-N-(4-(octyioxy)phenyl)thiazol-2-amine] | > 10 |
| CCCCCCCCOc1ccc(Nc2nc(Cc3ccc(Cl)cc3)cs2)cc1C(F)(F)F [compound 635, 4-(4-chlorobenzyl)-N-(3-(trifluoromethyl)-4-(octyloxy)phenyl)thiazol-2-amine] | 1 to 10 |
| CCCCCOc1ccc(Nc2nc(Cc3ccc(Cl)cc3)cs2)cc1F [compound 636, 4-(4-chlorobenzyl)-N-(3-fluoro-4-(pentyloxy)phenyl)thiazol-2-amine] | > 10 |
| CCCCCCCCN(C)c1ccc(Nc2nc(Cc3ccc(Cl)cc3)cs2)cc1 [compound 638, N^1-(4-(4-chlorobenzyl)thiazol-2-yl)-N^4-methyl-N^4-octylbenzene-1,4-diamine] | 1 to 10 |
| CCCCCOc1ccc(Nc2nc(Cc3ccc(OC)cc3)cs2)cc1C(F)(F)F [compound 639, 4-(4-methoxybenzyl)-N-(3-(trifluoromethyl)-4-(pentyloxy)phenyl)thiazol-2-amine] | 1 to 10 |
| CCCCCCCCOc1ccc(Nc2nc(Cc3ccc(OC)cc3)cs2)cc1 [compound 640, 4-(4-methoxybenzyl)-N-(4-(octyloxy)phenyl)thiazol-2-amine] | > 10 |
| CCCCCCCCOc1ccc(Nc2nc(Cc3ccc(OC)cc3)cs2)cc1C(F)(F)F [compound 641, 4-(4-methoxybenzyl)-N-(3-(trifluoromethyl)-4-(octyloxy)phenyl)thiazol-2-amine] | < 1 |

| Structure (SMILES) | EC50 [µM] |
| --- | --- |
| CCCCCOc1ccc(Nc2nc(Cc3ccc(OC)cc3)cs2)cc1F [compound 642, 4-(4-methoxybenzyl)-N-(3-fluoro-4-(pentyloxy)phenyl)thiazol-2-amine] | > 10 |
| CCCCCN(C)c1ccc(Nc2nc(Cc3ccc(OC)cc3)cs2)cc1C(F)(F)F [compound 643, N^4-(4-(4-methoxybenzyl)thiazol-2-yl)-2-(trifluoromethyl)-N^1-methyl-N^1-pentylbenzene-1,4-diamine] | > 10 |
| CCCCCCCCN(C)c1ccc(Nc2nc(Cc3ccc(OC)cc3)cs2)cc1 [compound 644, N^1-(4-(4-methoxybenzyl)thiazol-2-yl)-N^4-methyl-N^4-octylbenzene-1,4-diamine] | > 10 |
| CCC(CC)Oc1ccc(Nc2nc(-c3cccnc3)cs2)cc1C(F)(F)F [compound 645, N-(3-(trifluoromethyl)-4-(pentan-3-yloxy)phenyl)-4-(pyridin-3-yl)thiazol-2-amine] | < 1 |
| CCCCCOc1ccc(Nc2nc(-c3cncc(C(=O)O)c3)cs2)cc1C(F)(F)F [compound 646, 5-(2-(3-(trifluoromethyl)-4-(pentyloxy)phenylamino)thiazol-4-yl)pyridine-3-carboxylic acid] | < 1 |
| CCCCCOc1ccc(Nc2nc(-c3cncc(C(=O)N(C)C)c3)cs2)cc1C(F)(F)F [compound 647, 5-(2-(3-(trifluoromethyl)-4-(pentyloxy)phenylamino)thiazol-4-yl)-N,N-dimethylpyridine-3-carboxamide] | < 1 |
| CCCCCCCCOc1ccc(Nc2nc(-c3cncc(C(=O)O)c3)cs2)cc1 [compound 648, 5-(2-(4-(octyloxy)phenylamino)thiazol-4-yl)pyridine-3-carboxylic acid] | 1 to 10 |
| CCCCCCCCOc1ccc(Nc2nc(-c3cncc(C(=O)N(C)C)c3)cs2)cc1 [compound 649, 5-(2-(4-(octyloxy)phenylamino)thiazol-4-yl)-N,N-dimethylpyridine-3-carboxamide] | 1 to 10 |
| CCCCCCCCOc1ccc(Nc2nc(O)cs2)cc1C(F)(F)F [compound 650, 2-(3-(trifluoromethyl)-4-(octyloxy)phenylamino)thiazol-4-ol] | 1 to 10 |
| CCCCCCCCN(C)c1ccc(Nc2nc(O)cs2)cc1C(F)(F)F [compound 651] | 1 to 10 |
| Oc1csc(Nc2ccc(OCCCC3CCCC3)c(C(F)(F)F)c2)n1 [compound 652] | 1 to 10 |
| CCCCCCCCOc1ccc(Nc2nc(-c3cncc(C(N)=O)c3)cs2)cc1 [compound 653, 5-(2-(4-(octyloxy)phenylamino)thiazol 4-yl)pyridine-3-carboxamide] | < 1 |
| CCCCCCCCOc1ccc(Nc2nc(-c3cncc(C#N)c3)cs2)cc1C(F)(F)F [compound 654, 5-(2-(3-(trifluoromethyl)-4-(octyloxy)phenylamino)thiazol-4-yl)pyridine-3-carbonitrile] | < 1 |
| CCCCCCCCOc1ccc(Nc2nc(-c3cncc(C#N)c3)cs2)cc1 [compound 655, 5-(2-(4-(octyloxy)phenylamino)thiazol-4-yl)pyridine-3-carbonitrile] | < 1 |
| CCCCCCCCOc1ccc(Nc2nc(-c3cncc(OC)c3)cs2)cc1C(F)(F)F [compound 656, N-(3-(trifluoromethyl)-4-(octyloxy)phenyl)-4-(5-methoxypyridin-3-yl)thiazol-2-amine] | 1 to 10 |
| CCCCCCCCOc1ccc(Nc2nc(-c3cncc(OC)c3)cs2)cc1 [compound 657, 4-(5-methoxypyridin-3-yl)-N-(4-(octyloxy)phenyl)thiazol-2-amine] | 1 to 10 |
| FC(F)(F)c1cc(Nc2nc(-c3cccnc3)cs2)ccc1OCC1CCCCC1 [compound 658, N-(4-(cyclohexylmethoxy)-3-(trifluoromethyl)phenyl)-4-(pyridin-3-yl)thiazol-2-amine] | < 1 |
| CCCCCCCCOc1ccc(Nc2nc(-c3cnc(O)cc3C)cs2)cc1C(F)(F)F [compound 659, 5-(2-(3-(trifluoromethyl)-4-(octyloxy)phenylamino)thiazol-4-yl)-4-methylpyridin-2-ol] | < 1 |
| CCCCCCCCOc1ccc(Nc2nc(-c3ccc4c(c3)COC4=O)cs2)cc1C(F)(F)F [compound 660, 5-(2-(3-(trifluoromethyl)-4-(octyloxy)phenylamino)thiazol-4-yl)isobenzofuran-1(3H)-one] | < 1 |
| CCCCCCCCOc1ccc(Nc2nc(-c3ccc(-n4ccnc4)cc3)cs2)cc1C(F)(F)F [compound 661, 4-(4-(1H-imidazol-1-yl)phenyl)-N-(3-(trifluoromethyl)-4-(octyloxy)phenyl)thiazol-2-amine] | < 1 |
| CCCCCCCCOc1ccc(Nc2nc(-c3cnc(OC)nc3)cs2)cc1C(F)(F)F [compound 662, N-(3-(trifluoromethyl)-4-(octyloxy)phenyl)-4-(2-methoxypyrimidin-5-yl)thiazol-2-amine] | < 1 |
| CCCCCCCCOc1ccc(Nc2nc(-c3cncn3C)cs2)cc1C(F)(F)F [compound 663, N-(3-(trifluoromethyl)-4-(octyloxy)phenyl)-4-(1-methyl-1H-imidazol-5-yl)thiazol-2-amine] | < 1 |

Source: US8088806B2 (Achillion Pharmaceuticals, Inc., priority 2005, dated 2012)
